# Like-named read-outs stand apart in the source and are kept apart here.
# Legend:
# HIV-1 [1] = conditions: cited from earlier work
# [2] = system: patient's recombinant virus (HIV-1); assay: Phenotypic susceptibility, MT-4 cell viral cytopathic effect protection assay (fold resistance vs wild-type control virus); assay type: cell-based
# Method: Phenotypic susceptibility was determined using a MT-4 cell viral cytopathic effect protection assay. See, e.g., Kashiwase et al., Chemotherapy 45(1):48-55 (1999), expressly incorporated herein by reference; Larder et al., Antimicrob. Agents Chemother. 43(8): 1961-1967 (1999). […] The procedure is also described in WO 97/27480.
# HIV-1 [3] = conditions: drug - cut-off, Larder & Harrigan AIDS 2000; cited from earlier work
# [4] = HIV-1 mutation 333D/E in addition to M184V
smiles,measurement,setting,value
Nc1ccn([C@@H]2CS[C@H](CO)O2)c(=O)n1 [3TC],Effect of mutation on resistance,HIV-1 [1]; [4],dual AZT/3TC resistance
same,Effect of mutation on resistance,HIV-1 [1]; HIV-1 mutation M184V,confers resistance
same,Drug resistance level (from the phenotypic data),[2]; test sample 1,S/S (A fold resistance of less than or equal to 4 is considered to be)
same,Drug resistance level (from the phenotypic data),[2]; test sample 2,"R/R (if the value is greater than 10, it is considered to be)"
same,Drug resistance level (from the phenotypic data),[2]; test sample 3,"R/R (if the value is greater than 10, it is considered to be)"
same,Drug resistance level (from the phenotypic data),[2]; test sample 4,S/S (A fold resistance of less than or equal to 4 is considered to be)
same,Drug resistance level (from the phenotypic data),[2]; test sample 5,"R/R (if the value is greater than 10, it is considered to be)"
same,Drug resistance level (from the phenotypic data),[2]; test sample 6,"R (if the value is greater than 10, it is considered to be)"
same,Drug resistance level (from the phenotypic data),[2]; test sample 7,"R/R (if the value is greater than 10, it is considered to be)"
same,Drug resistance level (from the phenotypic data),[2]; test sample 8,"R/R (if the value is greater than 10, it is considered to be)"
same,Drug resistance level (from the phenotypic data),[2]; test sample 9,"R/R (if the value is greater than 10, it is considered to be)"
same,Drug resistance level (from the phenotypic data),[2]; test sample 10,S/S (A fold resistance of less than or equal to 4 is considered to be)
same,Biological cut-off (fold resistance),HIV-1 [3],4.5
Nc1nc(NC2CC2)c2ncn([C@H]3C=C[C@@H](CO)C3)c2n1 [1592 U89],Drug resistance level (from the phenotypic data),[2]; test sample 1,S/S (A fold resistance of less than or equal to 4 is considered to be)
same,Drug resistance level (from the phenotypic data),[2]; test sample 2,S (A fold resistance of less than or equal to 4 is considered to be)
same,Drug resistance level (from the phenotypic data),[2]; test sample 3,S/S (A fold resistance of less than or equal to 4 is considered to be)
same,Drug resistance level (from the phenotypic data),[2]; test sample 4,S/S (A fold resistance of less than or equal to 4 is considered to be)
same,Drug resistance level (from the phenotypic data),[2]; test sample 5,S/S (A fold resistance of less than or equal to 4 is considered to be)
same,Drug resistance level (from the phenotypic data),[2]; test sample 6,I (greater than 4 and less than 10 is considered to be)
same,Drug resistance level (from the phenotypic data),[2]; test sample 7,S/S (A fold resistance of less than or equal to 4 is considered to be)
same,Drug resistance level (from the phenotypic data),[2]; test sample 8,I (greater than 4 and less than 10 is considered to be)
same,Drug resistance level (from the phenotypic data),[2]; test sample 9,S/S (A fold resistance of less than or equal to 4 is considered to be)
same,Drug resistance level (from the phenotypic data),[2]; test sample 10,S/S (A fold resistance of less than or equal to 4 is considered to be)
same,Biological cut-off (fold resistance),HIV-1 [3],3.0
"Cc1cn([C@H]2C[C@H](N=[N+]=[N-])[C@@H](CO)O2)c(=O)[nH]c1=O [AZT, 3′-azido-3′-deoxythymidine]",Effect of mutation on resistance,HIV-1 [1]; [4],dual AZT/3TC resistance
same,Effect of mutation on resistance,HIV-1 [1]; HIV-1 mutation M184V,reverses AZT resistance
same,Biological cut-off (fold resistance),HIV-1 [3],4.0
Cc1cn([C@H]2C=C[C@@H](CO)O2)c(=O)[nH]c1=O [D4T],Mean fold change of IC50,[2]; 92 of 188 test samples with d4T IC50<3-fold,1.1 fold
same,Mean fold change of IC50,[2]; 96 of 188 test samples with d4T IC50>3-fold,7.7 fold
same,Mean fold change of IC50,[2]; 1040 of 2286 samples with d4T IC50<3-fold,1.2 fold
same,Mean fold change of IC50,[2]; 1246 of 2286 samples with d4T IC50>3-fold,9.0 fold
same,Biological cut-off (fold resistance),HIV-1 [3],1.75
Nc1ccn([C@H]2CC[C@@H](CO)O2)c(=O)n1 [DDC],Biological cut-off (fold resistance),HIV-1 [3],2.0
"OC[C@@H]1CC[C@H](n2cnc3c(O)ncnc32)O1 [DDI, 2′,3′-dideoxyinosine]",Biological cut-off (fold resistance),HIV-1 [3],2.0
O=C1Nc2ccc(Cl)cc2[C@@](C#CC2CC2)(C(F)(F)F)O1 [DMP266],Biological cut-off (fold resistance),HIV-1 [3],6.0
CC(C)Nc1cccnc1N1CCN(C(=O)c2cc3cc(NS(C)(=O)=O)ccc3[nH]2)CC1 [Delavirdine],Biological cut-off (fold resistance),HIV-1 [3],10.0
CC(C)(C)NC(=O)[C@@H]1CN(Cc2cccnc2)CCN1C[C@@H](O)C[C@@H](Cc1ccccc1)C(=O)N[C@H]1c2ccccc2C[C@H]1O [Indinavir],Biological cut-off (fold resistance),HIV-1 [3],3.0
Cc1cccc(C)c1OCC(=O)N[C@@H](Cc1ccccc1)[C@@H](O)C[C@H](Cc1ccccc1)NC(=O)[C@H](C(C)C)N1CCCNC1=O [Lopinavir],Biological cut-off (fold resistance),HIV-1 [3],2.5
Cc1c(O)cccc1C(=O)N[C@@H](CSc1ccccc1)[C@H](O)CN1C[C@H]2CCCC[C@H]2C[C@H]1C(=O)NC(C)(C)C [Nelfinavir],Biological cut-off (fold resistance),HIV-1 [3],4.0
Cc1ccnc2c1NC(=O)c1cccnc1N2C1CC1 [Nevirapine],Biological cut-off (fold resistance),HIV-1 [3],8.0
CC(C)c1nc(CN(C)C(=O)N[C@H](C(=O)N[C@@H](Cc2ccccc2)C[C@H](O)[C@H](Cc2ccccc2)NC(=O)OCc2cncs2)C(C)C)cs1 [Ritonavir],Biological cut-off (fold resistance),HIV-1 [3],3.5
CC(C)(C)NC(=O)[C@@H]1C[C@@H]2CCCC[C@@H]2CN1C[C@@H](O)[C@H](Cc1ccccc1)NC(=O)[C@H](CC(N)=O)NC(=O)c1ccc2ccccc2n1 [Saquinavir],Biological cut-off (fold resistance),HIV-1 [3],2.5
CC(C)CN(C[C@@H](O)[C@H](Cc1ccccc1)NC(=O)O[C@H]1CCOC1)S(=O)(=O)c1ccc(N)cc1 [VX-478],Effect of mutation on susceptibility in vitro,HIV-1 [1]; HIV-1 mutation N88S,hypersensitivity
same,Biological cut-off (fold resistance),HIV-1 [3],2.0
